1 compound from patent US4120895A, “S-phenenyltris (iminocarbonyl) triisophthalic acid salts” (American Cyanamid Company, priority 1977, dated 1978) can be followed below.

Assay [1] has as its target T1, activated human C1 (Homo sapiens, UniProt P09871).
T1 construct: fluid-phase human C2 consumption in presence of C4
Kind of assay: Test, Code 026 (C1 inhibitor). Format: biochemical. The text has this: An active inhibitor protects C2 from C1 and C4; (ii) Test, Code 035 (C3-C9 inhibitor)-This test determines the ability of the late components of human complement (C3-C9) to lyse EAC 142 in the presence of appropriate dilutions of the test compound. An active inhibitor protects EAC 142 from lysis by human C3-C9; (iii) Test, Code 036 (C-Shunt inhibitor) - In this test human erythrocytes rendered fragile are lysed in autologous serum via the shunt pathway activated by cobra venom factor in the presence of appropriate dilutions of the test compound. Inhibition of the shunt pathway results in failure of lysis; (iv) Forssman Vasculitis Test -- Here, the well known complement dependent lesion, Forssman vasculitis, is produced in guinea pigs by intradermal injection of rabbit anti-Forssman antiserum. The lesion is measured in terms of diameter, edema and hemorrhage and the extent to which a combined index of these is inhibited by prior intraperitoneal injection of the test compound at 200 mg/kg is then reported, unless otherwise stated; (v) Forssman Shock Test -- Lethal shock is produced in guinea pigs by an i.v. injection of anti-Forssman antiserum and the harmonic mean death time of treated guinea pigs is compared with that of simultaneous controls; (vi) Complement Level Reduction Test -- In this test, the above dosed guinea pigs, or others, are bled for serum and the complement level is determined in undiluted serum by the capillary tube method of U.S. Pat. No. 3,876,376 and compared to undosed control guinea pigs; and (vii) Cap 50 Test -- Here, appropriate amounts of the test compound are added to a pool of guinea pig serum in vitro, after which the undiluted serum capillary tube assay referred to above is run. The concentration of compound inhibiting 50% is reported.

The subject of assay [2] is Citrated sheep plasma (CSP). Briefly: in vitro anti-coagulant activity (AC). Format: biochemical. How it is done:
The sheep RBC's, kept in suspension throughout the clotting incubation time, become enmeshed in the fibrin matrix if a clot forms. Upon centrifugation of the plate, untrapped RBC's form buttons, the sizes of which correspond to the degree of clot inhibition; this providing a measure of anti-coagulant activity (AC). Sodium heparin is used as a positive control and activity is reported in wells appearing in Table I.

Structures can show the parent of a compound that is named as a salt. Bounds are passed on as bounds.

T1 sequence (P09871 16-688): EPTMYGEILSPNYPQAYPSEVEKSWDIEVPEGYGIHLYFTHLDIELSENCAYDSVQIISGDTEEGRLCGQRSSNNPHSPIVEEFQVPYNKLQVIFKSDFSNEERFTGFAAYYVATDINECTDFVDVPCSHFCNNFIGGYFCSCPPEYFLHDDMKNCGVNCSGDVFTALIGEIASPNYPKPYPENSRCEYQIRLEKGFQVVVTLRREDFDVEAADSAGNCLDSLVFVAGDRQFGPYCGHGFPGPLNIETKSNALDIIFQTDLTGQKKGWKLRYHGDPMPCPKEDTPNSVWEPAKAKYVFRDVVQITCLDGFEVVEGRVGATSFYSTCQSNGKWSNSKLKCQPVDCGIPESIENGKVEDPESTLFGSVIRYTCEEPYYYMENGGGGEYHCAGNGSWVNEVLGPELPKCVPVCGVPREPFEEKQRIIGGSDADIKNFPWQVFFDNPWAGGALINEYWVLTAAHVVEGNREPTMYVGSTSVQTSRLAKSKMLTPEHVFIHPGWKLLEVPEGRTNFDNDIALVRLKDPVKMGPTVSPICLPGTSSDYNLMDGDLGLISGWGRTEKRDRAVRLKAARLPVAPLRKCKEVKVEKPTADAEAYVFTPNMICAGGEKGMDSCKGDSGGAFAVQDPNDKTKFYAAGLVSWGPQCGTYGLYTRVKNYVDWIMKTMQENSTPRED
T1 sequence (P00736 18-705 partner): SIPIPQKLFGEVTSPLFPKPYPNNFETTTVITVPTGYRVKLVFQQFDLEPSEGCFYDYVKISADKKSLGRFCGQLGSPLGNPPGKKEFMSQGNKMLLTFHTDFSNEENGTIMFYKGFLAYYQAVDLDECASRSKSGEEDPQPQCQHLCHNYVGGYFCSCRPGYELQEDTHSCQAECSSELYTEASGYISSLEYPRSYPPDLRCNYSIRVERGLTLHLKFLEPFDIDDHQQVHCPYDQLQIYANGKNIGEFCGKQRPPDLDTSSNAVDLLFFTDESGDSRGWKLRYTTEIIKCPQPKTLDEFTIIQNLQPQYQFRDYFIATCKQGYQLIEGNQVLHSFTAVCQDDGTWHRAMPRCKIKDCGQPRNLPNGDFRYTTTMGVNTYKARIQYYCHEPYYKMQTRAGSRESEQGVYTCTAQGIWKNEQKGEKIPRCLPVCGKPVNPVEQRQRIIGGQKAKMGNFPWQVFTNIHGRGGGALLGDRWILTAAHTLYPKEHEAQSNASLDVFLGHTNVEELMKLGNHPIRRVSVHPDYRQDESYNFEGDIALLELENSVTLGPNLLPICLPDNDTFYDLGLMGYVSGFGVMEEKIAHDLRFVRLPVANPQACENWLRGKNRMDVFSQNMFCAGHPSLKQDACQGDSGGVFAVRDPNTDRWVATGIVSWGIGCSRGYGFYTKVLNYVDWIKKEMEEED
T1 sequence (P02745 23-245 partner): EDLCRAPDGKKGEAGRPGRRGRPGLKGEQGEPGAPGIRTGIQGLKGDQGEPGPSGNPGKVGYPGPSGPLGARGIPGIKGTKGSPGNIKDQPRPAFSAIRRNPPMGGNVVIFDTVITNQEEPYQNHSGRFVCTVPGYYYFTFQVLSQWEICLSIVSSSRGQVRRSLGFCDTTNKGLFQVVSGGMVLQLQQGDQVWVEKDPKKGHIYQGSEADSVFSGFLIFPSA
T1 sequence (P02746 28-253 partner): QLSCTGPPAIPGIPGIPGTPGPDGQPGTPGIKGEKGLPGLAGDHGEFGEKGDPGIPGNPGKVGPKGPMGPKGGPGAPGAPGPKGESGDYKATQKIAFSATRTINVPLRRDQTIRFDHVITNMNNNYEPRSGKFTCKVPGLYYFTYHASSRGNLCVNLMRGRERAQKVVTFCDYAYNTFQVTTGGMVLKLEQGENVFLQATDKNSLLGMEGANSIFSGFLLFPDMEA
T1 sequence (P02747 29-245 partner): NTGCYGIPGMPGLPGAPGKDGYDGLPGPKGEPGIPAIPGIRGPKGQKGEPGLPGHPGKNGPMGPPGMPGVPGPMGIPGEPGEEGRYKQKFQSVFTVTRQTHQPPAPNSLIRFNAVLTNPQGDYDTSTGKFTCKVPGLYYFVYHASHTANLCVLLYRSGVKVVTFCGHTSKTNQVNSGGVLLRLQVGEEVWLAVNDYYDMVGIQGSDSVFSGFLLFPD

Consider `O=C(O)c1cc(C(=O)O)cc(C(=O)Nc2cc(NC(=O)c3cc(C(=O)O)cc(C(=O)O)c3)cc(NC(=O)c3cc(C(=O)O)cc(C(=O)O)c3)c2)c1` [5,5',5"-[s-Phenenyltris(iminocarbonyl)]triisophthalic acid hexasodium salt], for which, in assay [1] (Table I, two-fold serial dilution assay, higher well number indicates higher activity), the “Cl 026 Wells” value is reported as “+3 Wells”. Moreover, the “In Vitro Activity, Complement Inhibiting Activity (Wells) Code 026” value in assay [1] (Table II) is “+3 Wells”. The “Logarithmic Difference Expressed as Wells” value in assay [1] (Table II, Code 026 wells minus AC wells (base 2)) is “+5 Wells”. In addition, in assay [2] (Table I, clot inhibition, recalcified citrated sheep plasma with sheep RBC, serial dilutions), the “AC Wells” value was < -2 Wells. The “In Vitro Activity, Anti-Coagulant Activity (Wells) AC” value in assay [2] (Table II) is listed as -2 Wells.
